# Laboratory results as given in US9056840B2, “Coelenterazine analogues and coelenteramide analogues” (JNC Corporation, priority 2010, dated 2015).
# What was measured:
# Assay type in all cases: physicochemical
# [1] = Fluorescence spectra of coelenteramide analogue alone (absence of apoaequorin); settings: analogue alone 8 μg/ml; for Coelenteramide (Buffer containing CaCl2) Fluorescence intensity (rlu) / Coelenteramide (Buffer containing CaCl2) Maximum fluorescence wavelength λmax (nm): 10 mM CaCl2 buffer pH 7.6, excitation 337 nm; for Coelenteramide (EDTA-containing buffer) Fluorescence intensity (rlu) / Coelenteramide (EDTA-containing buffer) Maximum fluorescence wavelength λmax (nm): 10 mM EDTA buffer pH 7.6, excitation 337 nm
# Procedure: (§1) The fluorescence spectra were determined as follows. For coelenteramide analogue alone, the fluorescence was measured according to the procedures for semi-synthetic gFP and semi-synthetic BFP described in EXAMPLES 11 and 12, except for in the absence of apoaequorin, using 1 ml of 50 mM Tris-HCl (pH 7.6) containing 10 mM EDTA and 1 mM DTT or 1 ml of 50 mM Tris-HCl (pH 7.6) containing 10 mM CaCl2 and 1 mM DTT, in the final concentration of coelenteramide analogue adjusted to 8 μg/ml. The fluorescence spectra were measured at 25° C. in a quartz cell (10 mm light path length) using a Jasco FP-6500 spectrofluorometer (excitation wavelength: 337 nm, emission/excitation bandwidth: 3 nm; response: 0.5 sec, scan speed, 1000 nm/min).
# apoaequorin [2] = target: T1, apoaequorin (Aequorea victoria, UniProt P07164); assay: Fluorescence spectra of semi-synthetic BFP (coelenteramide analogue + apoaequorin, CaCl2); settings: 10 mM CaCl2 buffer, excitation 337 nm
# T1 construct: purchased Chisso Corporation
# T1 sequence (P07164 other isoform, or with tags, fused parts or gaps with the stated changes): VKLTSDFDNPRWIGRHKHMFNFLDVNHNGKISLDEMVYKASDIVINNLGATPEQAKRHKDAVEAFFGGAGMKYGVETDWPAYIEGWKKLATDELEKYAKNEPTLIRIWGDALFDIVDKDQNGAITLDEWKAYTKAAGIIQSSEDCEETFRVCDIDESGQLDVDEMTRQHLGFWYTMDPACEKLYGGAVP
# Procedure: Semi-synthetic gFP was prepared from recombinant apoaequorin and coelenteramide analogues as follows. In 1 ml of 50 mM Tris-HC 1 (pH 7.6) containing 10 mM CaCl2 and 1 mM DTT, apoaequorin (0.2 mg) was mixed with 8 μl of a coelenteramide analogue (1 μg/μl in anhydrous methanol). The mixture was allowed to stand at 4° C. for 16 hours to prepare semi-synthetic BFP-like protein (hereinafter sometimes simply referred to as “semi-synthetic BFP”).
# as §1
# apoaequorin [3] = target: T1, apoaequorin; assay: Fluorescence spectra of semi-synthetic gFP (coelenteramide analogue + apoaequorin, EDTA); settings: 10 mM EDTA buffer, excitation 337 nm
# Procedure: Semi-synthetic gFP was prepared from recombinant apoaequorin and coelenteramide analogues as follows. In 1 ml of 50 mM Tris-HC 1 (pH 7.6) containing 10 mM EDTA and 1 mM DTT, apoaequorin (0.2 mg) was mixed with 8 μl of a coelenteramide analogue (1 μg/μl in anhydrous methanol). The mixture was allowed to stand 4° C. for 16 hours to prepare semi-synthetic gFP-like protein (hereinafter sometimes simply referred to as “semi-synthetic gFP”).
# as §1
Compound,Coelenteramide (Buffer containing CaCl2) Fluorescence intensity (rlu) [1] [rlu],Coelenteramide (Buffer containing CaCl2) Maximum fluorescence wavelength λmax (nm) [1] [nm],Coelenteramide (EDTA-containing buffer) Fluorescence intensity (rlu) [1] [rlu],Coelenteramide (EDTA-containing buffer) Maximum fluorescence wavelength λmax (nm) [1] [nm],Fluorescence intensity (apoaequorin [2]) [rlu],Semi-synthetic BFP (Buffer containing CaCl2) Maximum fluorescence wavelength λmax (nm) (apoaequorin [2]),Semi-synthetic gFP (EDTA-containing buffer) Fluorescence intensity (rlu) (apoaequorin [3]),Semi-synthetic gFP (EDTA-containing buffer) Maximum fluorescence wavelength λmax (nm) (apoaequorin [3])
"O=C(Cc1ccc(O)cc1)Nc1ncc(-c2ccc(O)cc2)nc1-c1cc2ccccc2s1 [Compound 4h, N-[3-(Benzo[b]thiophen-2-yl)-5-(4-hydroxyphenyl)pyrazin-2-yl]-2-(4-hydroxyphenyl) acetamide]",101.2,426.5,115.2,426.5,153.3,427.0,–,–
"O=C(Cc1ccc(O)cc1)Nc1ncc(-c2ccc(O)cc2)nc1-c1ccc(-c2cccs2)s1 [Compound 4m, N-[3-(2,2′-Bithiophen-5-yl)-5-(4-hydroxyphenyl)pyrazin-2-yl]-2-(4-hydroxyphenyl) acetamide]",–,–,–,–,182.4,457.5,163.8,482.5
"CN(C)c1ccc(-c2nc(-c3ccc(O)cc3)cnc2NC(=O)Cc2ccc(O)cc2)cc1 [Compound 4n, N-[3-{4-(Dimethylamino)phenyl}-5-(4-hydroxyphenyl)pyrazin-2-yl]-2-(4-hydroxyphenyl)acetamide]",–,–,–,–,231.3,487.5,151.5,485.5
"O=C(Cc1ccc(O)cc1)Nc1ncc(-c2ccc(O)cc2)nc1Br [Compound 4t, N-[3-Bromo-5-(4-hydroxyphenyl)pyrazin-2-yl]-2-(4-hydroxyphenyl)acetamide]",12.1,482.0,11.8,480.5,–,–,22.0,482.5
"O=C(Nc1ccc(O)cc1)Nc1ncc(-c2ccc(O)cc2)nc1Cc1ccccc1 [Compound 4u, 1-[3-Benzyl-5-(4-hydroxyphenyl)pyrazin-2-yl]-3-(4-hydroxyphenyl)urea]",0.9,445.5,0.7,440.5,–,–,11.4,494.5
"O=C(Nc1ncc(-c2ccc(O)cc2)nc1Cc1ccccc1)c1ccc(O)cc1 [Compound 4x, N-[3-Benzyl-5-(4-hydroxyphenyl)pyrazin-2-yl]-4-hydroxybenzamide]",1.4,450.0,1.3,449.0,36.8,485.0,–,–
"O=C(Nc1ncc(-c2ccc(O)cc2)nc1Cc1ccccc1)c1cccc(O)c1 [Compound 4y, N-[3-Benzyl-5-(4-hydroxyphenyl)pyrazin-2-yl]-3-hydroxybenzamide]",1.4,457.0,1.3,456.0,–,–,44.8,492.0
